Laboratory results taken from article PMC6784244 (Toxins, 2019).
≈ marks a conversion by molar mass, not a printed value. Where “and” joins values, the source holds several entries; their conditions need not be identical. Identical values can stand only once. Like-named read-outs stand apart in the source and are kept apart here.

Key:
C. perfringens [1] = format: cell-based, Clostridium perfringens
[2] = lipid monolayer at air-water interface on PBS pH 7.4, peptide 1 µM, initial pressure 10-30 mN/m, extrapolated to delta pressure 0
Protocol: (§1) Peptide–lipid interaction was evaluated using reconstituted lipid monolayer at the air–water interface as previously described. Pure prokaryotic and eukaryotic lipids used were: POPC (1-palmitoyl-2-oleoyl-glycero-3-phosphocholine), POPE (1-palmitoyl-2-oleoyl-sn-glycero-3-phosphoethanolamine), POPG (1-palmitoyl-2-oleoyl-sn-glycero-3-phospho-(1’-rac-glycerol), and cardiolipin, all from Avanti Polar Lipid (Alabama, USA). LTA (Lipoteichoic acid from B. subtilis) was obtained from Invivogen SAS (Toulouse, France). Pure lipids were reconstituted in chloroform:methanol (2:1, v:v) at 1 mg/mL and stored at −20 °C under nitrogen. The interaction and insertion of the ENN and BEA into lipids were evaluated through the measurement of their critical pressure of insertion as previously described. Briefly, lipids were spread using a 50 µL Hamilton’s syringe at the surface of 800 µL of sterile PBS creating a lipid monolayer at the air–water interface. Lipids were added until the surface pressure reached the desired value. After 5–10 min of incubation allowing evaporation of the solvent and stabilization of the initial surface pressure, 8 µL of ENN or BEA diluted in sterile PBS at 100 µM were injected into the 800 µL sub-phase of PBS under the lipid monolayer (pH 7.4, volume 800 µL) using a 10 µL Hamilton syringe giving a final concentration of peptides of 1 µM, preliminary experiments having shown that this concentration gave optimal insertion. The variation of the surface pressure caused by peptide injection was then continuously monitored using a fully automated microtensiometer (µTROUGH SX, Kibron Inc., Helsinki, Finland) until reaching equilibrium (maximal surface pressure increase being usually obtained after 15–25 min). The critical pressure of insertion of each peptide was determined by changing the initial pressure of lipid monolayer (from 10 and 30 mN/m) and measuring the variation of pressure caused by the insertion of the peptide. The critical pressure of insertion of each peptide in a particular lipid was determined graphically and calculated as the theoretical value of initial pressure of lipid monolayer not permissive to peptide insertion, i.e., causing a variation of pressure equal to 0 mN/m.

[3] = design: key: -- indicates the absence of interaction; settings: lipid monolayer on PBS pH 7.4, peptide 1 µM, extrapolated to delta pressure 0; -- = absence of interaction
Protocol: as §1

[4] = design: species or system B. subtilis; key: -- indicates the absence of interaction; settings: lipid monolayer on PBS pH 7.4, peptide 1 µM, extrapolated to delta pressure 0; -- = absence of interaction
Protocol: as §1

C. perfringens [5] = format: cell-based, Clostridium perfringens; remark: listed apart in the source
C. perfringens [6] = format: cell-based, Clostridium perfringens; remark: listed apart in the source
[7] = system: Bacillus subtilis (ATCC 6633)
[8] = system: Nisin-resistant B. subtilis (DSMZ 347)
[9] = system: Clostridium perfringens (ATCC 13124)
[10] = system: Vancomycin-resistant Enterococcus faecalis (DSMZ 13591)
[11] = system: Staphylococcus aureus (ATCC CRM-6538P)
[12] = system: Methicillin-resistant S. aureus strain MRSA USA300
[13] = system: Acinetobacter baumannii (CIP 110431)
[14] = system: Escherichia coli (ATCC 8739)
[15] = system: Helicobacter pylori (ATCC 43504)
[16] = system: Pseudomonas aeruginosa (ATCC CRM-9027)
[17] = system: Mycobacterium smegmatis (mc2155, ATCC 700084); settings: mc2155, 72 h
[18] = system: Aspergillus flavus (DSMZ 1959); settings: DSMZ 1959, pH 7
A. niger (ATCC 9142) = settings: ATCC 9142, pH 7
A. ochraceus (DSMZ 824) = settings: DSMZ 824, pH 7
[19] = system: Candida albicans (DSMZ 10697); settings: DSMZ 10697, 24 h, pH 7
[20] = system: Fusarium graminearum (DSMZ 1095); settings: DSMZ 1095, pH 7
[21] = system: F. oxysporum (DSMZ 62316); settings: DSMZ 62316, pH 7
[22] = system: F. verticillioides (DSMZ 62264); settings: DSMZ 62264, pH 7
[23] = system: Penicillium verrucosum (DSMZ 12639); settings: DSMZ 12639, pH 7
[24] = system: Stachybotrys chartarum (DSMZ 2144); settings: DSMZ 2144, pH 7
human erythrocytes = settings: pH 7.4
[25] = system: HEK (human normal epidermal keratinocytes); settings: 48 h
[26] = system: N87 (human gastric cell line); settings: 48 h
[27] = C. perfringens, 5 x MIC, 4 h, 37 °C, anaerobic, FM4-64FX membrane and DAPI DNA staining, confocal microscope

CC1(C)S[C@@H]2[C@H](NC(=O)[C@H](N)c3ccc(O)cc3)C(=O)N2[C@H]1C(=O)O [Amoxicillin, reference compound]
Observed Morphology (C. perfringens [1]; [27]): • Elongated cells (5–6 times compared to control) • Normally condensed DNA

CC(C)[C@H]1OC(=O)[C@H](Cc2ccccc2)N(C)C(=O)[C@@H](C(C)C)OC(=O)[C@H](Cc2ccccc2)N(C)C(=O)[C@@H](C(C)C)OC(=O)[C@H](Cc2ccccc2)N(C)C1=O [BEA, Beauvericin]
critical pressure of insertion, POPC [2]: 41.65 mN/m
critical pressure of insertion, POPE [2]: 32.46 mN/m
critical pressure of insertion, POPG [3]: --
critical pressure of insertion, LTA [4]: --
percentage of permeabilization at four times the MIC (C. perfringens [5]): 1.8 ± 2.8%
membrane depolarization at 100 µM (C. perfringens [6]): 59.1 ± 2.0%
membrane depolarization at four times their MIC (C. perfringens [6]): 63.8 ± 4.8%
membrane depolarization at their MIC (C. perfringens [6]): 38.3 ± 3.3% and 30–40%
Known/possible target (C. perfringens [1]): Protein biosynthesis
Observed Morphology (C. perfringens [1]): • No cell elongation • DNA condensed in 1–4 circles per cells
MIC, B. subtilis [7]: 6.25 to 12.5 µM
MIC, B. subtilis NR [8]: 6.25 to 12.5 µM
MIC, C. perfringens [9]: 6.25 µM (≈ 4.9 µg/mL)
MIC, E. faecalis [10]: 12.5 µM (≈ 9.8 µg/mL)
MIC, S. aureus [11]: 12.5 µM (≈ 9.8 µg/mL)
MIC, S. aureus MRSA [12]: 6.25 to 12.5 µM
MIC, A. baumannii [13]: >100 µM
MIC, E. coli [14]: >100 µM
MIC, H. pylori [15]: >100 µM
MIC, P. aeruginosa [16]: >100 µM
MIC, M. smegmatis [17]: 25 µM (≈ 19.6 µg/mL)
MIC, A. flavus [18]: >100 µM
MIC, A. niger (A. niger (ATCC 9142)): >100 µM
MIC, A. ochraceus (A. ochraceus (DSMZ 824)): >100 µM
MIC, C. albicans [19]: 6.25 µM (≈ 4.9 µg/mL)
MIC, F. graminearum [20]: 25 µM (≈ 19.6 µg/mL)
MIC, F. oxysporum [21]: >100 µM
MIC, F. verticillioides [22]: >100 µM
MIC, P. verrucosum [23]: >100 µM
MIC, S. chartarum [24]: >100 µM
HC50 (dose causing 50% hemolysis), Erythrocytes (human erythrocytes): 118.9 ± 15.8 µM
IC50 [25]: 5.4 ± 0.9 µM
IC50 [26]: 27.5 ± 0.7 µM

CO/N=C1\CN(c2nc3c(cc2F)c(=O)c(C(=O)O)cn3C2CC2)CC1CN (stereo not shown) [Gemifloxacin, reference compound]
Observed Morphology (C. perfringens [1]; [27]): • Elongated cells (5–6 times compared to control) • Decondensed DNA • Chain formation

CO[C@H]1/C=C/O[C@@]2(C)Oc3c(C)c(O)c4c(O)c(c(/C=N/N5CCN(C)CC5)c(O)c4c3C2=O)NC(=O)/C(C)=C\C=C\[C@H](C)[C@H](O)[C@@H](C)[C@@H](O)[C@@H](C)[C@H](OC(C)=O)[C@@H]1C [Rifampicin, reference compound]
Observed Morphology (C. perfringens [1]; [27]): • No cell elongation • DNA condensed in one filament crossing the cells

CN(C)[C@@H]1C(O)=C(C(N)=O)C(=O)[C@@]2(O)C(O)=C3C(=O)c4c(O)cccc4[C@@](C)(O)[C@H]3C[C@@H]12 [Tetracycline, reference compound]
Observed Morphology (C. perfringens [1]; [27]): • Some cell elongation (1.5–2 times compared to control) • DNA condensed in 1–4 circles per cells
